From patent US20160193240A1, “Ulmoside-A: Useful For Prevention Or Cure Of Metabolic Diseases” (COUNCIL OF SCIENTIFIC & INDUSTRIAL RESEARCH, priority 2013, published 2016)
Marks after values point to notes of the source that are not given here.

What was measured:
AdipoR1 = biological target: T1, AdipoR1 (Mus musculus, UniProt Q91VH1); experiment: ULMA-AdipoR interaction assay (ULMA beads, C2C12 myotube membrane extracts, western blot); type: binding; conditions: 50 μg membrane extract, 12 hours
T1 construct: C2C12 myotubes (that express both AdipoR1 and AdipoR2) were incubated with 20 μl control or ULMA-beads; endogenous in cells; host or cells: C2C12 myotubes (mouse), plasma membrane extract
T1 sequence (Q91VH1 1-375): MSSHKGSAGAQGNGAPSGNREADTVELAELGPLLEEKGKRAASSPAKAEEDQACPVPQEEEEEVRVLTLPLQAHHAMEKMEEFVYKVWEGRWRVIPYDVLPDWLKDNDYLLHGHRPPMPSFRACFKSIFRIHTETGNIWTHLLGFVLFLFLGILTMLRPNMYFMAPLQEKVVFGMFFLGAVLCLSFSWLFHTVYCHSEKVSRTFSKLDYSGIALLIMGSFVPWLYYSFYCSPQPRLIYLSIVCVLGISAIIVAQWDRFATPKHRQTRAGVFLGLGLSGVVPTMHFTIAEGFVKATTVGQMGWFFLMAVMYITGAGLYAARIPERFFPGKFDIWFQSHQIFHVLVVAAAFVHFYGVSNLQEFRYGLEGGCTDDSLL
Experimental: (§1) B. ULMA interacts with AdipoRs. 20 μl of ULMA beads or control beads were incubated with 50 μg of plasma membrane extracts (prepared using a membrane protein isolation kit; Biomol; according to manufacturer's instructions) prepared from C2C12 myotubes (that expresses both AdipoR1 and AdipoR2) for 12 h on a rotary wheel set at 10 rpm. The supernatant was removed and an aliquot was stored as flowthrough. The pellet was washed 6 times and then the beads were boiled in Lamelli buffer and resolved by 10% denaturing polyacrylamide gel electrophoresis followed by transfer on nitrocellulose membrane and western blotting with anti AdipoR1 or anti-AdipoR2 antibodies. Data represents one of two independent experiments showing identical pattern.
(§2) To investigate whether this enhancement of PPAR ligand activity by ULMA indeed happens through AdipoRs, physical interaction between ULMA and AdipoRs were assessed. The ULMA was immobilized on agarose beads.
(§3) Preparation of ULMA Specific Affinity Matrix:
(§4) ULMA specific Affinity Matrix and Control Matrix were prepared using following protocol.
(§5) 1. 45 mg and 22.5 mg of epoxy-activated agarose beads (sigma) were weighed and put separately in two 1.5 ml eppendorf tubes. Tubes were labeled as tube-1 and tube-2. 2. The beads were washed 6×, 1 ml each, with double distilled water (DDW). […] At this stage beads were ready for incubation with protein source. […]

AdipoR2 = biological target: T2, AdipoR2 (Mus musculus, UniProt Q8BQS5); experiment: as above; type: binding; conditions: 50 μg membrane extract, 12 hours
T2 construct: C2C12 myotubes (that express both AdipoR1 and AdipoR2) were incubated with 20 μl control or ULMA-beads; endogenous in cells; host or cells: C2C12 myotubes (mouse), plasma membrane extract
T2 sequence (Q8BQS5 1-386): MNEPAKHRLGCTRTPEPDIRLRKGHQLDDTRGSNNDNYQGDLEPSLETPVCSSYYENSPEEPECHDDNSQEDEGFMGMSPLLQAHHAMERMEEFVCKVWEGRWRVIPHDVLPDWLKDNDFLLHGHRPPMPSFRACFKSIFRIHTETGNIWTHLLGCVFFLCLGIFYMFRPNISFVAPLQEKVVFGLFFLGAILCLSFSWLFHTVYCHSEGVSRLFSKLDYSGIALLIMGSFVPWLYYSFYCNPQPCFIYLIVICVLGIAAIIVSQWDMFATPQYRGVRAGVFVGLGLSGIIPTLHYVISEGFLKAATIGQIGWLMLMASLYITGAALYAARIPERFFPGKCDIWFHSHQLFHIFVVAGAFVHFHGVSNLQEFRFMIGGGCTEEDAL
Experimental: as §1, §2, §3, §4, §5

wistar rats = experiment: Dexamethasone-mediated reduction in serum osteocalcin in rats (ELISA); type: in vivo, rat; conditions: Dex + ULMA, 14 days
Experimental: Food intake was measured daily and the rats were weighed each week. The rats were fasted overnight (O/N) on day 14th and on day 15th oral glucose tolerance test was performed. Following oral glucose tolerance test (OGTT), rats were kept with food and water ad libitum for one day. On day 16th, rats were fasted again O/N and then euthanized. At autopsy, from 5 animals/group, tissues were collected and snap frozen in liquid nitrogen. Blood was collected from cardiac punctures. Plasma was separated from whole blood by centrifugation at 3000 rpm for 20 min immediately after collection of blood and stored at −80° C. until further analysis. […] (quadriceps) skeletal muscles were processed for RNA and protein extraction, followed by quantitative real-time PCR (QRT-PCR) analysis. Two animals from each group were used for photography post autopsy.

Q: How did the “AdipoR1 detection on ULMA beads vs control beads” value (AdipoR1) turn out when O=C1c2c(cc(O)c([C@@H]3O[C@H](CO)[C@@H](O)[C@H](O)[C@H]3O)c2O)O[C@@H](c2ccc(O)c(O)c2)[C@@H]1O [ULMA, (2S,3S)-(+)-3′,4′,5,7-tetrahydroxydihydroflavonol-6-C-β-D-glucopyranoside] was run?
A: The value was “detected on ULMA beads”.

Q: And the “AdipoR2 detection on ULMA beads vs control beads” value (AdipoR2)?
A: The value was “detected on ULMA beads”.

Q: And the “Osteocalcin (ng/ml)” value (wistar rats)?
A: Its value is 387.7 ± 16.1^a ng/ml.
